Data published in EP0025288A1, “Derivatives of monic acid, processes for their preparation, compositions containing them and their preparation” (priority 1979, dated 1981).

Assays:
Format in all cases: cell-based
[1] = tested on: Corynebacterium pyogenes CY1; assay: MIC, veterinary bacteria; settings: veterinary bacteria (Table 2)
Ps aeruginosa 10662 = assay: MIC, human bacteria, serial dilution in nutrient agar; settings: nutrient agar containing 5% 'chocolated' horse blood
Staph aureus Russell = assay: as above; settings: nutrient agar containing 5% 'chocolated' horse blood
M dispar NCTC 10125 = assay: MIC, anti-mycoplasmal, Friis' broth microtiter method
[2] = tested on: M suipneumoniae J2206/183b; assay: as above
Strep agalactiae SPA1 = assay: MIC, veterinary bacteria; settings: veterinary bacteria (Table 2)
M synoviae ATCC 25204 = assay: MIC, anti-mycoplasmal, serial dilution in Friis' agar
[3] = tested on: Erysipelothrix rhusiopathiae NCTC 8163; assay: MIC, veterinary bacteria; settings: veterinary bacteria (Table 2)
E coli NCTC 10418 [4] = assay: MIC, human bacteria, serial dilution in nutrient agar; settings: nutrient agar containing 5% 'chocolated' horse blood
[5] = tested on: Haemophilus influenzae Q1; assay: as above; settings: nutrient agar containing 5% 'chocolated' horse blood
M arthritidis ATCC 14124 = assay: MIC, anti-mycoplasmal, serial dilution in Friis' agar
M pneumoniae 427a [6] = assay: as above
E coli ESS = assay: MIC, human bacteria, serial dilution in nutrient agar; settings: nutrient agar containing 5% 'chocolated' horse blood
E coli NCTC 10418 [7] = assay: MIC, veterinary bacteria; settings: veterinary bacteria (Table 2)
M hyosynoviae ATCC 25591 = assay: MIC, anti-mycoplasmal, serial dilution in Friis' agar
Strep uberis SPU1 = assay: MIC, veterinary bacteria; settings: veterinary bacteria (Table 2)
M bovis NCTC 10131 = assay: MIC, anti-mycoplasmal, serial dilution in Friis' agar
[8] = tested on: Neisseria flavescens 8263; assay: MIC, human bacteria, serial dilution in nutrient agar; settings: nutrient agar containing 5% 'chocolated' horse blood
[9] = tested on: M bovigenitalium ATCC 14173; assay: MIC, anti-mycoplasmal, serial dilution in Friis' agar
M dispar H225 = assay: MIC, anti-mycoplasmal, Friis' broth microtiter method
S dublin S7 = assay: MIC, veterinary bacteria; settings: veterinary bacteria (Table 2)
Past Haemolytica PA5 = assay: MIC, veterinary bacteria; settings: veterinary bacteria (Table 2)
Staph aureus W2827 = assay: MIC, human bacteria, serial dilution in nutrient agar; settings: nutrient agar containing 5% 'chocolated' horse blood
M alkalescens NCTC 10135 = assay: MIC, anti-mycoplasmal, serial dilution in Friis' agar
Strep dysgalaciae SPD1 = assay: MIC, veterinary bacteria; settings: veterinary bacteria (Table 2)
M pneumoniae ATCC 15492 [10] = assay: MIC, anti-mycoplasmal, Friis' broth microtiter method
P mirabilis 889 = assay: MIC, human bacteria, serial dilution in nutrient agar; settings: nutrient agar containing 5% 'chocolated' horse blood
M hyorhinis ATCC 23234 = assay: MIC, anti-mycoplasmal, serial dilution in Friis' agar
[11] = tested on: Staph aureus B4 (pen resis); assay: MIC, veterinary bacteria; settings: veterinary bacteria (Table 2)
[12] = tested on: Haemophilus influenzae Wy21; assay: MIC, human bacteria, serial dilution in nutrient agar; settings: nutrient agar containing 5% 'chocolated' horse blood
Bord bronchiseptica BO8 = assay: MIC, veterinary bacteria; settings: veterinary bacteria (Table 2)
Strep pneumoniae CN33 = assay: MIC, human bacteria, serial dilution in nutrient agar; settings: nutrient agar containing 5% 'chocolated' horse blood
M pulmonis JB [13] = assay: MIC, anti-mycoplasmal, serial dilution in Friis' agar
M pneumoniae ATCC 15492 [14] = assay: as above
[15] = tested on: Staph aureus 152 (pen sens); assay: MIC, veterinary bacteria; settings: veterinary bacteria (Table 2)
M fermentans MWKL4 [16] = assay: MIC, anti-mycoplasmal, Friis' broth microtiter method
Past multocida PA1 = assay: MIC, veterinary bacteria; settings: veterinary bacteria (Table 2)
M bovis ATCC 25025 = assay: MIC, anti-mycoplasmal, serial dilution in Friis' agar
S typhimurium S18 = assay: MIC, veterinary bacteria; settings: veterinary bacteria (Table 2)
Sercina lutea 8340 = assay: MIC, human bacteria, serial dilution in nutrient agar; settings: nutrient agar containing 5% 'chocolated' horse blood
[17] = tested on: Pasteurella multocida 1633; assay: as above; settings: nutrient agar containing 5% 'chocolated' horse blood
M suipneumoniae Str 11 = assay: MIC, anti-mycoplasmal, Friis' broth microtiter method
Strep pyogenes A 64/848 = assay: MIC, human bacteria, serial dilution in nutrient agar; settings: nutrient agar containing 5% 'chocolated' horse blood
[18] = tested on: Strep suis (group D) SPS11; assay: MIC, veterinary bacteria; settings: veterinary bacteria (Table 2)
Staph aureus Oxford [19] = assay: MIC, human bacteria, serial dilution in nutrient agar; settings: nutrient agar containing 5% 'chocolated' horse blood
Strep faecalis I = assay: as above; settings: nutrient agar containing 5% 'chocolated' horse blood
Strep pyogenes B 2788 = assay: as above; settings: nutrient agar containing 5% 'chocolated' horse blood
[20] = tested on: Corynebacterium zerosis 9755; assay: as above; settings: nutrient agar containing 5% 'chocolated' horse blood
M pneumoniae 427a [21] = assay: MIC, anti-mycoplasmal, Friis' broth microtiter method
K aerogenes A = assay: MIC, human bacteria, serial dilution in nutrient agar; settings: nutrient agar containing 5% 'chocolated' horse blood
Bacillus subtilis 6633 = assay: as above; settings: nutrient agar containing 5% 'chocolated' horse blood
Bord bronchisptica BO9 = assay: MIC, veterinary bacteria; settings: veterinary bacteria (Table 2)
M pulmonis JB [22] = assay: MIC, anti-mycoplasmal, Friis' broth microtiter method
M gallisepticum S6 = assay: MIC, anti-mycoplasmal, serial dilution in Friis' agar
Staph aureus Oxford [23] = assay: MIC, veterinary bacteria; settings: veterinary bacteria (Table 2)
Past multocida PA2 = assay: MIC, veterinary bacteria; settings: veterinary bacteria (Table 2)
Strep pyogenes C 2761 = assay: MIC, human bacteria, serial dilution in nutrient agar; settings: nutrient agar containing 5% 'chocolated' horse blood
E coli E1 = assay: MIC, veterinary bacteria; settings: veterinary bacteria (Table 2)
M fermentans MWKL4 [24] = assay: MIC, anti-mycoplasmal, serial dilution in Friis' agar

8-Acetvloctyl Monate A [Example 3]
MIC [1]: >80 µg/mL | MIC (Ps aeruginosa 10662): >100 µm/ml | MIC (Staph aureus Russell): 9.5 µm/ml | in vitro MIC, BROTH (M dispar NCTC 10125): <0.02 µg/mL | in vitro MIC, BROTH [2]: 0.156 µg/mL | MIC (Strep agalactiae SPA1): 0.625 µg/mL | in vitro MIC, AGAR (M synoviae ATCC 25204): <0.02 µg/mL | MIC [3]: 10 µg/mL | MIC (E coli NCTC 10418 [4]): 100 µm/ml | MIC [5]: 0.2 µm/ml | in vitro MIC, AGAR (M arthritidis ATCC 14124): 2.5 µg/mL | in vitro MIC, AGAR (M pneumoniae 427a [6]): 1.25 µg/mL | MIC (E coli ESS): 0.5 µm/ml | MIC (E coli NCTC 10418 [7]): >80 µg/mL | in vitro MIC, AGAR (M hyosynoviae ATCC 25591): 0.156 µg/mL | MIC (Strep uberis SPU1): 0.07 µg/mL | in vitro MIC, AGAR (M bovis NCTC 10131): ≤0.02 µg/mL | MIC [8]: 0.1 µm/ml | in vitro MIC, AGAR [9]: 0.078 µg/mL | in vitro MIC, BROTH (M dispar H225): 0.039 µg/mL | MIC (S dublin S7): >80 µg/mL | MIC (Past Haemolytica PA5): 20 µg/mL | MIC (Staph aureus W2827): 100 µm/ml | in vitro MIC, AGAR (M alkalescens NCTC 10135): 0.039 µg/mL | MIC (Strep dysgalaciae SPD1): 0.156 µg/mL | in vitro MIC, BROTH (M pneumoniae ATCC 15492 [10]): 0.312 µg/mL | MIC (P mirabilis 889): >100 µm/ml | in vitro MIC, AGAR (M hyorhinis ATCC 23234): 0.625 µg/mL | MIC [11]: 0.312 µg/mL | MIC [12]: 0.2 µm/ml | MIC (Bord bronchiseptica BO8): 20 µg/mL | MIC (Strep pneumoniae CN33): 0.2 µm/ml | in vitro MIC, AGAR (M pulmonis JB [13]): 0.039 µg/mL | in vitro MIC, AGAR (M pneumoniae ATCC 15492 [14]): 1.25 µg/mL | MIC [15]: 0.312 µg/mL | in vitro MIC, BROTH (M fermentans MWKL4 [16]): <0.02 µg/mL | MIC (Past multocida PA1): 2.5 µg/mL | in vitro MIC, AGAR (M bovis ATCC 25025): 0.039 µg/mL | MIC (S typhimurium S18): >80 µg/mL | MIC (Sercina lutea 8340): >100 µm/ml | MIC [17]: 1.0 µm/ml | in vitro MIC, BROTH (M suipneumoniae Str 11): 0.039 µg/mL | MIC (Strep pyogenes A 64/848): 0.2 µm/ml | MIC [18]: 1.25 µg/mL | MIC (Staph aureus Oxford [19]): 0.1 µm/ml | MIC (Strep faecalis I): 100 µm/ml | MIC (Strep pyogenes B 2788): 0.5 µm/ml | MIC [20]: 100 µm/ml | in vitro MIC, BROTH (M pneumoniae 427a [21]): 0.312 µg/mL | MIC (K aerogenes A): >100 µm/ml | MIC (Bacillus subtilis 6633): 0.2 µm/ml | MIC (Bord bronchisptica BO9): 5 µg/mL | in vitro MIC, BROTH (M pulmonis JB [22]): <0.02 µg/mL | in vitro MIC, AGAR (M gallisepticum S6): 5.0 µg/mL | MIC (Staph aureus Oxford [23]): 0.312 µg/mL | MIC (Past multocida PA2): 0.156 µg/mL | MIC (Strep pyogenes C 2761): 0.5 µm/ml | MIC (E coli E1): >80 µg/mL | in vitro MIC, AGAR (M fermentans MWKL4 [24]): 0.039 µg/mL
